The values that follow come from PMC7188855, “Nucleic acid recognition and antiviral activity of 1,4-substituted terphenyl compounds mimicking all faces of the HIV-1 Rev protein positively-charged α-helix” (Scientific Reports, 2020).

In general, Kd refers to the concentration at which binding is half-saturated. In general, CC50 refers to the concentration that lowers cell viability or growth by half. As a reminder, the IC50 is the concentration at which inhibition is half-maximal. In general, EC50 refers to the midpoint of the concentration-response curve. Low readings indicate higher potency in that assay, high ones lower potency in that assay.

Read-outs that look alike come from different tables or passages of the source.

Series [1] concerns the target RRE subdomain IIB RNA hairpin IIBh. Nature of the series: Fluorescence intensity binding to fluorescein-labelled IIBh hairpin. On the set-up: species or system HIV-1. The source says:
We next determined whether the terphenyl molecules blocked the interaction between Rev34–50 and subdomain IIB by binding to the RNA and, if so, whether they recognized subdomain IIB in a manner similar to the Rev34–50 α-helix. We first evaluated subdomain IIB association by measuring changes in the fluorescence intensity of a IIBh RNA hairpin construct containing a fluorescein probe attached to unpaired loop IIB residue U23 (Fig. 1D)[21],[22]. […] However, there were significant differences among the compounds.
(§1) These experiments measured association to IIBh-23fl or TARh-8fl RNA molecules labelled with fluorescein at extrahelical loop nucleotides U23 and U8, respectively (Fig. 1D), and were carried out under two different ionic conditions in a Victor X5 plate reader, using excitation and emission wavelengths of 485 and 520 nm, respectively. We also attempted to measure association to an alternative IIBh hairpin containing 2-aminopurine instead of adenine at unpaired loop IIB residue A19[21], but all terphenyls fluoresced at the excitation wavelength of this fluorophore. IIBh-23fl or TARh-8fl (at 100 nM concentration) was equilibrated for 5 minutes after each ligand addition in a buffer containing either 10 mM sodium phosphate pH 6.6 and 0.1 mM EDTA or 10 mM HEPES pH 7.5, 200 mM KCl and 2 mM MgCl2. In addition to the TARh specificity control, the RNA and DNA specificity of the IIBh interactions was assessed by duplicating the experiments in the presence of a 10-fold molar excess (1 μM) of either tRNA^Lys or DNA duplex LTRd. The equilibrium dissociation constants Kd were determined by fitting the fluorescence intensity curves with DYNAFIT[40]. We used one-site, two independent-sites and two interacting-sites binding models for all curves, and the best model was automatically selected by model discrimination analysis, except where indicated. The final graphs were plotted with Prism. All fluorescence intensity experiments were performed at least two times for each compound and condition.

Series [2] can be described thus: Cellular viability (CellTiterGlo) in mock infected cells. As to conditions: human, mock infected MT-2 cells. Type of series: cell-based. As to the method:
(§2) The methodology used to perform and analyse these experiments has been reported elsewhere[7],[21],[22]. Briefly, infectious supernatants were obtained from transfection of plasmid pNL4.3-Ren on 293 T cells, MT-2 cells were infected with these supernatants in the presence of the compounds, and anti-HIV activity quantification was performed 48 h post-infection by determining luciferase activity in cell lysates compared to a non-treated control (100%). Cellular viability was evaluated in mock infected cells similarly treated with the same concentrations of compounds using the CellTiterGlo (Promega) assay.
Background: Cellular ATP, detected with luciferase, serves as a proxy for viable cell number.

The target of series [3] is RRE subdomain IIB-Rev34–50. Nature of the series: Fluorescence anisotropy displacement of the IIBh-Rev34–50 interaction. As to conditions: read-out: IC50, RRE subdomain IIB-Rev34–50, 60 nM IIBh, 10 nM frevp, 100 mM KCl, 20 mM NaCl, 2 mM MgCl2. (In fluorescence polarisation assays a small probe gives low polarisation when free and higher when bound to something large.)
Protocol: These experiments were conducted in a Victor X5 (PerkinElmer) plate reader as described before[7],[21], using 10 nM frevp and 60 nM IIBh. […] Each fluorescence anisotropy experiment was repeated at least two times.
For series [4], the system named is HIV-1. Nature of the series: Cellular HIV-1 infection assay (NL4.3-Ren, MT-2 cells). Format: cell-based. The note with it: Human immunodeficiency virus 1, MT2, 48 h post-infection. As for the experimental part: as §2
Series [5] has as its system LTRc, core region of the HIV-1 LTR promoter. As to the kind of experiment: EMSA of association to LTRc DNA. Type of series: binding. As to conditions: 20 nM LTRc duplex; 10 mM HEPES pH 7.5, 300 mM KCl, 1 mM MgCl2, 0.5 mM EDTA. As for the experimental part: (§3) The experiments monitoring RRE-Rev inhibition utilized 78 nM full-length RRE and 1.32 μM full-length Rev dissolved in 10 mM HEPES pH 7.5, 300 mM KCl, 1 mM MgCl2 and 0.5 mM EDTA binding buffer, and increasing concentrations of each compound up to 50 μM[21],[39]. The reactions were incubated at room temperature for 20 minutes and loaded onto 8% polyacrylamide gels with TB running buffer. Gels were run at 4 °C for 1–4 hours at 150 V, and the bands were stained with SYBR gold and quantified with Quantity One 4.1 analysis software. Experiments monitoring binding to the 58-base pair HIV-1 LTRc core segment utilized 20 nM LTRc duplex dissolved in the same binding buffer, and increasing concentrations of each compound. The reactions were similarly incubated and loaded onto 20% polyacrylamide gels with TB running buffer. The gels were run at 4 °C for 3.5 hours at 150 V, and the bands were stained and quantified as described above. The specificity of LTRc association was evaluated by duplicating the experiments in the presence of a 100-fold molar excess of DNAd duplex (28-fold base-pair molar excess). In all cases, we monitored the disappearance of the band corresponding to high-order RRE-Rev complexes or free LTRc, and 50% response RC50 values were determined with Prism by fitting the data to a sigmoidal inhibitory model: I−Imin=ImaxC/1+C/RC50 where I is the intensity of the band corresponding to LTRc or high-order RRE-Rev species at compound concentration C, Imax the best-fit value for maximum intensity, and Imin the minimum intensity obtained at the highest concentration of inhibitor. All EMSA experiments were repeated three times for each compound.
Background: In EMSA bound probe runs differently from free probe, usually more slowly.

The target of series [6] is TARh hairpin containing the HIV-1 Tat-binding UCU bulge. As to the kind of experiment: Fluorescence intensity binding to control TARh hairpin.
Text: To evaluate the specificity of subdomain IIB recognition, we measured binding to a control TARh hairpin containing the HIV-1 Tat-binding UCU bulge[23] (Fig. 1D). […] We further assessed specificity by duplicating the IIBh-23fl association experiments in the presence of a 10-fold molar excess of tRNA^Lys or a 26-base pair LTRd DNA duplex. The binding curves of the compounds were affected by the presence of competitive tRNA^Lys and to a lesser extent by LTRd (Figs. 4A, S4 and S5 and Tables 2 and S2).
as §1

Series [7] concerns high-order RRE-Rev. As to the kind of experiment: EMSA of full-length RRE-Rev ribonucleoprotein formation. Format: binding, HIV-1. The note with it: 78 nM RRE, 1.32 μM Rev, 300 mM KCl, 1 mM MgCl2, band of high-order complexes.
Text: After the high-affinity interaction between RRE subdomain IIB and the Rev34–50 helix of the first Rev monomer is established, the RRE-Rev ribonucleoprotein is formed by the incorporation of additional Rev units binding to further sites in the RRE (Fig. 3B, right)[9],[10],[13]. Using an electrophoretic mobility shift assay (EMSA) involving full-length RRE and Rev, we also evaluated whether 1,4-terphenyl compounds were capable of interfering with the formation of the ribonucleoprotein. […] The effect was particularly prominent for high-order complexes (containing a greater number of Rev monomers), but the inhibition of low-order complexes by 1d was also detected at concentrations consistent with the IC50 value measured in the IIB-Rev34–50 displacement experiment. Compounds 1b and 3c exerted a weaker effect on the RRE-Rev complex, in agreement with the results obtained in the displacement experiments monitored by fluorescence anisotropy (Fig. 3B and Table 1).
as §3

Setting [8] is: low ionic strength, 10 mM sodium phosphate pH 6.6, 0.1 mM EDTA, two-site model, read-out: Kd,1 first-site equilibrium dissociation constant (IIBh), Table S1.
Where [9] appears, read: low ionic strength, 10 mM sodium phosphate pH 6.6, 0.1 mM EDTA, two-site model, read-out: Kd,2 second-site equilibrium dissociation constant (IIBh), Table S1.
Where [10] appears, read: low ionic strength, 10 mM sodium phosphate pH 6.6, uses Kd1.

In the case of `COc1ccc(-c2cc(C)c(-c3cc(CCN)ccc3CCN)cc2C)cc1CCN` [Compound 3b], the Kd is 5.5 µM in series [1] (setting [8]) and 22 µM in series [1] (setting [9]). The molecule also had a CC50 at 48 h in series [2] greater than 100 µM. In addition, the IC50 in series [3] is greater than 100 µM. The same molecule showed an EC50 in series [4] greater than 100 µM.
In the case of `Cc1cc(-c2cc(CCN)ccc2CCN)c(C)cc1-c1ccccc1CCN` [Compound 4], the results for the Kd in series [1] (setting [8]) and in series [1] (setting [9]) were 3.7 µM and 33 µM, respectively. In series [2], the CC50 at 48 h is greater than 100 µM. Also, in series [3], the IC50 is greater than 100 µM. Moreover, in series [4], the EC50 is 50 to 100 µM.
`CCc1cc(-c2cc(CCN)c(OC)cc2CCN)c(CC)cc1-c1cc(CCN)c(OC)cc1CCN` [Compound 1b]: the Kd was 0.51 µM in series [1] (10 mM sodium phosphate pH 6.6, 0.1 mM EDTA, two-site model, read-out: Kd (IIBh), first-site Kd1); 21 µM in series [1] (10 mM sodium phosphate pH 6.6, 0.1 mM EDTA, two-site model, read-out: Kd (IIBh), second-site Kd2 (in brackets)); 6.5 µM in series [1] (10-fold molar excess DNA duplex LTRd, 10 mM sodium phosphate pH 6.6, 0.1 mM EDTA, one-site fit, approximate, read-out: Kd (IIBh+LTRd)); greater than 50 µM in series [1] (10-fold molar excess LTRd, 10 mM HEPES pH 7.5, 200 mM KCl, 2 mM MgCl2, read-out: Kd (IIBh+LTRd), one-site or first-site Kd1, Table S2); greater than 50 µM in series [1] (10-fold molar excess tRNALys, 10 mM HEPES pH 7.5, 200 mM KCl, 2 mM MgCl2, one-site fit, approximate, read-out: Kd (IIBh+tRNA), Table S2); 8.7 µM in series [1] (10-fold molar excess tRNALys, 10 mM sodium phosphate pH 6.6, 0.1 mM EDTA, one-site fit, approximate, read-out: Kd (IIBh+tRNA)). Also, the Kd was greater than 50 µM in series [1] (higher ionic strength, 10 mM HEPES pH 7.5, 200 mM KCl, 2 mM MgCl2, read-out: Kd (IIBh), first-site Kd1, Table S2); greater than 50 µM in series [6] (10 mM sodium phosphate pH 6.6, 0.1 mM EDTA, read-out: Kd (TARh), one-site or first-site Kd1); greater than 50 µM in series [6] (higher ionic strength, 10 mM HEPES pH 7.5, 200 mM KCl, 2 mM MgCl2, read-out: Kd (TARh), Table S2). In series [1] (setting [10]), the “IIB-DNA spec., Kd(IIBh)/Kd(IIBh+LTRd)” value stood at 0.078. Moreover, the “IIB-tRNA spec., Kd(IIBh)/Kd(IIBh+tRNA)” value in series [1] (setting [10]) came out at 0.059. Also, the “association to LTRc (EMSA)” value in series [5] is “not detected”. Further, in series [2], the CC50 at 48 h is greater than 100 µM. Further, the IC50 was greater than 100 µM in series [3] and greater than 50 µM in series [7]. Also, the EC50 in series [4] is greater than 100 µM.
Take `COc1cc(CCCN)c(-c2cc(C)c(-c3cc(CCCN)c(OC)cc3CCCN)cc2C)cc1CCCN` [Compound 2a]: the Kd in series [1] (setting [8]) turned out to be 0.67 µM; in series [1] (setting [9]) it was 25 µM. For the same molecule, the CC50 at 48 h in series [2] is greater than 100 µM. Moreover, the IC50 in series [3] is greater than 100 µM. In series [4], this molecule displayed an EC50 greater than 100 µM.
Take `CCOc1cc(CCN)c(-c2cc(C)c(-c3cc(CCN)c(OCC)cc3CCN)cc2C)cc1CCN` [Compound 1c]: the Kd turned out to be 0.19 µM in series [1] (setting [8]) and 74 µM in series [1] (setting [9]). This molecule also came in with a CC50 at 48 h in series [2] greater than 100 µM. Further, the IC50 in series [3] was greater than 100 µM. In series [4], the EC50 is greater than 100 µM.
For `CCc1cc(-c2cc(CCCN)c(OC)cc2CCCN)c(CC)cc1-c1cc(CCCN)c(OC)cc1CCCN` [Compound 2b], the values for the Kd in series [1] (setting [8]) and in series [1] (setting [9]) were 0.11 µM and 46 µM, respectively. The CC50 at 48 h in series [2] is greater than 100 µM. Also, in series [3], the IC50 was greater than 100 µM. The molecule also showed an EC50 in series [4] greater than 100 µM.
Regarding `COc1ccc(-c2cc(C)c(-c3cc(CCN)c(OC)cc3CCN)cc2C)cc1CCN` [Compound 3a], the figures for the Kd in series [1] (setting [8]) and in series [1] (setting [9]) were 8.9 µM and 36 µM, respectively. Besides, the CC50 at 48 h in series [2] is greater than 100 µM. In addition, the IC50 in series [3] is greater than 100 µM. Further, a half-maximal response in series [4] (EC50) required 35.5 µM.
